From patent US20240368123A1, “AROMATIC RING-CONTAINING BIOLOGICAL ANTAGONIST, AND PREPARATION METHOD THEREFOR AND USE THEREOF” (SHANGHAI HANSOH BIOMEDICAL CO., LTD., priority 2021, published 2024)

Experiments:
[1] = molecular target: T1, CYP450 enzyme subtype 1A2 (Homo sapiens, UniProt P05177); experiment: CYP enzyme single point inhibition test, 1A2; type: in vitro ADME; settings: human liver microsomes, single point method
T1 construct: Human liver microsome incubation system was used; from tissue; host or cells: human liver microsomes
T1 sequence (P05177 1-516): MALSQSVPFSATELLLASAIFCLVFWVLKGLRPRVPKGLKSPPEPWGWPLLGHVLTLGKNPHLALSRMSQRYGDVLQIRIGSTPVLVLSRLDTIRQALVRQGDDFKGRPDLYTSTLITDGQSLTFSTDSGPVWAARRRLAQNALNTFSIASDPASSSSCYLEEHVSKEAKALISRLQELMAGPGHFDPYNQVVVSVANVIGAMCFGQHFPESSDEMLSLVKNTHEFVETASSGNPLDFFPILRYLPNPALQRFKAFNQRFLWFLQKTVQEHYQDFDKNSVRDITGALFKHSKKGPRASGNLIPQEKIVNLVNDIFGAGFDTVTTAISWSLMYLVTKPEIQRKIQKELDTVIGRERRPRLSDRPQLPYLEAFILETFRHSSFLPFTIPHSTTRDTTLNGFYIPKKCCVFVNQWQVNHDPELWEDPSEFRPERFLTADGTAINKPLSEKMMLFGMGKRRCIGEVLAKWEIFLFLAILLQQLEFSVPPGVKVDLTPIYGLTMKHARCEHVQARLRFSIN
Experimental: (§1) Human liver microsome incubation system was used, and the single point method was used to quickly predict the inhibition on CYP450 enzyme subtypes (1A2, 2C19, 2D6, 3A4-M, and 3A4-T) by compounds.
(§2) For 2.5 mM NADPH, 4.165 mg of NADPH (reduced nicotinamide adenine dinucleotide phosphate) was weighed and 100 mM phosphate buffer was added to 2 mL. For 0.25 mg/mL microsomes, 50 μL of 20 mg/mL microsomes was added to 4 mL of 100 mM phosphate buffer and mixed evenly.
(§3) The test example compound was weighed, diluted to 10 mM with DMSO, and then diluted to 100 μM with 100 mM phosphate buffer.
(§4) • 1. 40 μL of liver microsomes, 10 μL of substrate, and 10 μL of test compound were added in a 96-well plate and the mixture was pre-incubated for 3 min. • 2. 40 μL of NADPH was added. • 3. At 20 min, 300 μL of acetonitrile stop solution containing internal standard was added. • 4. The mixture was centrifuged and the sample was loaded.

[2] = molecular target: T2, CYP450 enzyme subtype 2C19 (Homo sapiens, UniProt P33261); experiment: CYP enzyme single point inhibition test, 2C19; type: in vitro ADME; settings: human liver microsomes, single point method
T2 construct: Human liver microsome incubation system was used; from tissue; host or cells: human liver microsomes
T2 sequence (P33261 whole entry): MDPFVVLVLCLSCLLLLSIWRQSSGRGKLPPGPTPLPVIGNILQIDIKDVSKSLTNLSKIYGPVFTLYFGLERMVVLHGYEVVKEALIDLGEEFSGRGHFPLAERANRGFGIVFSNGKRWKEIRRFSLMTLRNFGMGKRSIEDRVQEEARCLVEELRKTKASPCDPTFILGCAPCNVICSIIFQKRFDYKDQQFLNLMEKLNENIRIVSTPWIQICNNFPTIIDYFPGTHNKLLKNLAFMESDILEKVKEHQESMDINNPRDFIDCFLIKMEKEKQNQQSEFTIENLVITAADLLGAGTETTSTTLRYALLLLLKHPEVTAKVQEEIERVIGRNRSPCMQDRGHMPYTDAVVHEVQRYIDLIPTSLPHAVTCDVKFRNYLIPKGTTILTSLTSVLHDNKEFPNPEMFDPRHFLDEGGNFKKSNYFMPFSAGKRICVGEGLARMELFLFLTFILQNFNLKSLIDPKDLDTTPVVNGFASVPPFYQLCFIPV
Experimental: as §1, §2, §3, §4

In the case of `CCCCC1=NC2(CCCC2)C(=O)N1Cc1ccc(-c2ccccc2S(=O)(=O)Nc2noc(C)c2Br)c(COCC)c1` [Example 46, 2-[4-[(2-butyl-4-oxo-1,3-diazaspiro[4.4]non-1-en-3-yl)methyl]-2-(ethoxymethyl)phenyl]-N-(4-bromo-5-methyl-isoxazol-3-yl)benzsulfamide], the IC50 [1] is reported as > 100 µM and the IC50 [2] is reported as > 100 µM.
